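Test compounds were applied to cells in 96-well plates for 48 hours at 5 doses. GI50: concentration for 50% inhibition of growth.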 The source made the active and inactive calls. Cut-off read from the data, not from the text of the source: active = GI50 up to about 1.1 µM and inactive = higher.

Some test systems named below: CAKI-1; 786-0; OVCAR-5; U-251; SF-539; SK-MEL-2; SK-OV-3; EKVX; UACC-257; OVCAR-4; HCT-15; NCI-H522; SF-295; NCI/ADR-RES; HCC 2998; SN12C; KM12; TK-10; RXF 393; SR.
Holding throughout (test): inhibition of tumour cell growth, NCI panel, 48 h

As to `CN(C)CC/C=C1\c2ccccc2Sc2ccc(Cl)cc21`, the GI50 in the assay with CAKI-1 is 8.11 µM (inactive); in the assay on 786-0, 12.2 µM (inactive); in the assay with OVCAR-5 it was 13.9 µM (inactive); with U-251, 12.7 µM (inactive); with SF-539, 19 µM (inactive); in the assay with SK-MEL-2 it was 16.1 µM (inactive). Moreover, the GI50 is 16.3 µM (inactive) with SK-OV-3; 10.1 µM (inactive) with EKVX; 6.87 µM (inactive) in the assay on UACC-257; 12.6 µM (inactive) in the assay with OVCAR-4; 15.4 µM in the assay with HCT-15; 12.6 µM (inactive) with NCI-H522. Further, the GI50 with SF-295 is 15.9 µM (inactive); with NCI/ADR-RES, 13.8 µM (inactive); in the assay with HCC 2998 it was 2.22 µM (inactive); in the assay on SN12C, 15.2 µM (inactive); with KM12, 21 µM (inactive); with TK-10, 14.5 µM (inactive). In the assay with RXF 393, the GI50 was 12.5 µM (inactive).
For the compound `CCOP(=O)(OCC)C(Cc1ccccc1)N=C(c1ccccc1)c1ccccc1` (centres undefined), the GI50 in the assay with CAKI-1 was 16.2 µM (inactive); with 786-0 it was 15.2 µM (inactive); in the assay on OVCAR-5 it was 14.4 µM (inactive); with U-251, 13.3 µM (inactive); in the assay with SK-MEL-2, 18.2 µM (inactive); in the assay with SK-OV-3, 15.2 µM (inactive). Further, the GI50 in the assay with EKVX is 18 µM (inactive); in the assay on UACC-257 it was 13.7 µM (inactive); in the assay on OVCAR-4 it was 16.2 µM (inactive); with HCT-15, 12.1 µM; with SR, 17.9 µM (inactive); in the assay on NCI-H522, 12.4 µM (inactive). Moreover, the GI50 was 12.3 µM (inactive) in the assay with SF-295; 10.1 µM (inactive) with NCI/ADR-RES; 16.7 µM (inactive) in the assay with SN12C; 15.5 µM (inactive) in the assay on KM12; 11.5 µM (inactive) with TK-10.
Consider `CCOC(=O)C1(Cc2ccc3c(c2)CCC3)Cc2cc3c(cc2C1=O)CCC3` (centres undefined), for which the GI50 in the assay on CAKI-1 is > 46.3 µM (inactive); in the assay with 786-0 it was > 100 µM (inactive); with OVCAR-5, > 100 µM (inactive); in the assay on U-251, > 78 µM (inactive); in the assay on SF-539, > 100 µM (inactive); in the assay with SK-MEL-2, > 100 µM (inactive). For the same compound, the GI50 with SK-OV-3 is > 100 µM (inactive); with EKVX, 97.5 µM (inactive); in the assay on UACC-257 it was 31.3 µM (inactive); in the assay with OVCAR-4 it was 52 µM (inactive); in the assay with HCT-15, 58.6 µM; in the assay on SR, 44.3 µM (inactive). The GI50 with NCI-H522 was 47.8 µM (inactive); in the assay with SF-295, 48.3 µM (inactive); in the assay on NCI/ADR-RES, 36 µM (inactive); in the assay on HCC 2998, 62.5 µM (inactive); in the assay on SN12C, 66.2 µM (inactive); in the assay with KM12, > 50.9 µM (inactive). Besides, the GI50 in the assay with TK-10 was > 100 µM (inactive).
In the case of `c1cc(CSP234N5CCN2CCN3CCN4CC5)cc(CSP234N5CCN2CCN3CCN4CC5)c1`, the GI50 in the assay on CAKI-1 is > 100 µM (inactive); with 786-0, > 100 µM (inactive); in the assay with OVCAR-5 it was 86.7 µM (inactive); in the assay with U-251 it was 21.9 µM (inactive); in the assay on SF-539, 22.9 µM (inactive); in the assay on SK-MEL-2 it was 19.2 µM (inactive). Besides, the GI50 in the assay on EKVX was 63.2 µM (inactive); in the assay with UACC-257, 17 µM (inactive); with OVCAR-4, 32.9 µM (inactive); in the assay on HCT-15, 22.3 µM; in the assay on SR it was 4.91 µM (inactive); in the assay on NCI-H522 it was 16.9 µM (inactive). In addition, the GI50 with SF-295 is 14.2 µM (inactive); in the assay with NCI/ADR-RES it was 57.4 µM (inactive); in the assay with HCC 2998, 19.3 µM (inactive); with SN12C, 58.6 µM (inactive); in the assay with KM12 it was 19.5 µM (inactive); in the assay on TK-10, 26.3 µM (inactive).
Turning to `O=C(O)c1nc2ccc(C(F)(F)F)cc2nc1NCc1ccc(Cl)c(Cl)c1`, the GI50 with CAKI-1 was 19.2 µM (inactive); with 786-0 it was 15.9 µM (inactive); with OVCAR-5 it was 13.5 µM (inactive); with U-251, 13.8 µM (inactive); with SF-539, 19.5 µM (inactive); in the assay with SK-MEL-2, 12.5 µM (inactive). Moreover, the GI50 is 19.4 µM (inactive) with SK-OV-3; 15.8 µM (inactive) with EKVX; 21.2 µM (inactive) with UACC-257; 18.5 µM (inactive) in the assay with OVCAR-4; 18 µM with HCT-15; 15.6 µM (inactive) in the assay on SR. Also, the GI50 in the assay with SF-295 was 17.4 µM (inactive); in the assay with NCI/ADR-RES, 22.2 µM (inactive); with HCC 2998 it was 16.4 µM (inactive); with SN12C, 15.5 µM (inactive); in the assay on KM12, 16.3 µM (inactive).
Take `COc1ccc(CCn2ccc(=O)c(O)c2C)cc1OC`: the GI50 in the assay with CAKI-1 is 2.48 µM (inactive); in the assay with 786-0, 5 µM (inactive); with OVCAR-5 it was 26.7 µM (inactive); with U-251, 9.64 µM (inactive); with SF-539 it was 26.2 µM (inactive); with SK-OV-3, 21.2 µM (inactive). The GI50 in the assay with EKVX was 24.4 µM (inactive); in the assay with UACC-257 it was 6.18 µM (inactive); with HCT-15 it was 2.7 µM; in the assay with SR it was 28.4 µM (inactive); with SF-295, 5.77 µM (inactive); in the assay on NCI/ADR-RES, 7.45 µM (inactive). Moreover, the figures for the GI50 with KM12 and in the assay on TK-10 were 40.3 µM (inactive) and 5.87 µM (inactive), respectively.
Take `Cc1c(O)c(=O)ccn1CCc1ccc(O)cc1`: the GI50 was 4.52 µM (inactive) in the assay with CAKI-1; 6.32 µM (inactive) in the assay with 786-0; 30 µM (inactive) in the assay on OVCAR-5; 13.9 µM (inactive) in the assay on U-251; 29.4 µM (inactive) in the assay with SF-539; 24.8 µM (inactive) with SK-OV-3. Besides, the GI50 in the assay on EKVX was 20.4 µM (inactive); with UACC-257 it was 25.5 µM (inactive); in the assay on OVCAR-4 it was 22 µM (inactive); with HCT-15, 4.82 µM; in the assay on SR, 34.6 µM (inactive); in the assay with SF-295 it was 24.3 µM (inactive). Further, the GI50 in the assay on NCI/ADR-RES was 8.71 µM (inactive); in the assay on KM12 it was 41.3 µM (inactive); in the assay with TK-10, 15.8 µM (inactive).
As to `c1ccc(NNC2=NCCN2)cc1`, the GI50 in the assay with CAKI-1, with 786-0, with OVCAR-5, in the assay on U-251, in the assay with SF-539 and in the assay on SK-MEL-2 was > 100 µM (inactive) throughout. Moreover, the GI50 is > 100 µM (inactive) with SK-OV-3; > 100 µM (inactive) in the assay with EKVX; > 100 µM (inactive) in the assay with UACC-257; > 100 µM (inactive) in the assay on OVCAR-4; > 100 µM in the assay on HCT-15; > 100 µM (inactive) in the assay with SR. Moreover, the GI50 was > 100 µM (inactive) in the assay on NCI-H522; 2.75 µM (inactive) in the assay with SF-295; > 100 µM (inactive) in the assay with NCI/ADR-RES; > 100 µM (inactive) in the assay with SN12C; > 100 µM (inactive) in the assay with KM12; > 100 µM (inactive) with TK-10.
As for `CC12CCCC(C(=O)O)(C1)[C@H](C(C)(C)C(=O)O)CC2` (some centres undefined), the GI50 in the assay on CAKI-1, with 786-0, in the assay on OVCAR-5, with U-251, with SK-MEL-2 and in the assay on SK-OV-3 was > 100 µM (inactive) each time. Moreover, the GI50 in the assay on EKVX was > 100 µM (inactive); in the assay on UACC-257 it was > 100 µM (inactive); with OVCAR-4, > 100 µM (inactive); in the assay on HCT-15, > 100 µM; in the assay on SR, > 100 µM (inactive); in the assay with NCI-H522 it was > 100 µM (inactive). Also, the GI50 with SF-295, in the assay with NCI/ADR-RES, in the assay on SN12C, in the assay on KM12 and in the assay with TK-10 was > 100 µM (inactive) throughout.
